Measured values: ChEMBL document CHEMBL1201862, “PubChem BioAssay data set” (2004)
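1) Cells in 96-well plates. 2) Compound, 48 h, 5 concentrations. 3) Linear interpolation between surrounding doses. 4) Unreached endpoint = highest concentration. GI50 is the concentration that inhibits growth by half.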 The source made the active and inactive calls. No stated cut-off is given here; in the data, active = GI50 up to about 1.1 µM and inactive = higher.

Assays:
Assay in all cases: NCI tumour cell line growth inhibition, 48 h
ACHN = test system: ACHN
CAKI-1 = test system: CAKI-1
HCT-116 = test system: HCT-116
HL-60 = test system: HL-60
HOP-92 = test system: HOP-92
HT-29 = test system: HT-29
KM12 = test system: KM12
M14 = test system: M14
Malme-3M = test system: Malme-3M
NCI-H226 = test system: NCI-H226
NCI-H460 = test system: NCI-H460
NCI-H522 = test system: NCI-H522
NCI/ADR-RES = test system: NCI/ADR-RES
OVCAR-5 = test system: OVCAR-5
SF-539 = test system: SF-539
SK-MEL-28 = test system: SK-MEL-28
SN12C = test system: SN12C
T47D = test system: T47D
TK-10 = test system: TK-10
UACC-62 = test system: UACC-62

Question: Which GI50 (ACHN) does the source give for CC(=O)C(C)CCOC1(C)OCCC1C (stereo not given) here?
Answer: Its GI50 is > 100 µM (inactive).

Question: What about the GI50 (CAKI-1) of the same molecule?
Answer: The GI50 was > 100 µM (inactive).

Question: And the GI50 (HCT-116)?
Answer: The GI50 was > 100 µM (inactive).

Question: What about the GI50 (HL-60) of the same molecule?
Answer: The GI50 was > 100 µM (inactive).

Question: What about the GI50 (HOP-92) of the same molecule?
Answer: The GI50 was > 100 µM (inactive).

Question: And the GI50 (HT-29)?
Answer: The GI50 was > 100 µM (inactive).

Question: What about the GI50 (KM12) of the same molecule?
Answer: The GI50 was > 100 µM (inactive).

Question: And the GI50 (M14)?
Answer: Its GI50 is > 100 µM (inactive).

Question: And the GI50 (Malme-3M)?
Answer: The GI50 was > 100 µM (inactive).

Question: And the GI50 (NCI-H226)?
Answer: The GI50 was > 100 µM (inactive).

Question: And the GI50 (NCI-H460)?
Answer: Its GI50 is > 100 µM (inactive).

Question: What about the GI50 (NCI-H522) of the same molecule?
Answer: The GI50 was > 100 µM (inactive).

Question: And the GI50 (NCI/ADR-RES)?
Answer: Its GI50 is > 100 µM (inactive).

Question: And the GI50 (OVCAR-5)?
Answer: The GI50 was > 100 µM (inactive).

Question: And the GI50 (SF-539)?
Answer: Its GI50 is > 100 µM (inactive).

Question: What about the GI50 (SK-MEL-28) of the same molecule?
Answer: The GI50 was > 100 µM (inactive).

Question: And the GI50 (SN12C)?
Answer: The GI50 was > 100 µM (inactive).

Question: What about the GI50 (T47D) of the same molecule?
Answer: The GI50 was > 100 µM (inactive).

Question: What about the GI50 (TK-10) of the same molecule?
Answer: Its GI50 is > 100 µM (inactive).

Question: And the GI50 (UACC-62)?
Answer: Its GI50 is > 100 µM (inactive).

Question: For O=[N+]([O-])c1ccc2nc3c(nc2c1)-c1c2ccccc2cc2cccc-3c12, which GI50 (ACHN) is on record?
Answer: The GI50 was 2.74 µM (inactive).

Question: And the GI50 (CAKI-1)?
Answer: Its GI50 is 9.77 µM (inactive).

Question: And the GI50 (HCT-116)?
Answer: Its GI50 is 2.87 µM (inactive).

Question: And the GI50 (HL-60)?
Answer: Its GI50 is 20.5 µM (inactive).

Question: And the GI50 (HOP-92)?
Answer: The GI50 was 14.9 µM (inactive).

Question: And the GI50 (HT-29)?
Answer: Its GI50 is 5.31 µM (inactive).

Question: What about the GI50 (KM12) of the same molecule?
Answer: The GI50 was 3.61 µM (inactive).

Question: What about the GI50 (M14) of the same molecule?
Answer: Its GI50 is 31.3 µM (inactive).

Question: What about the GI50 (Malme-3M) of the same molecule?
Answer: Its GI50 is 19 µM (inactive).

Question: And the GI50 (NCI-H226)?
Answer: Its GI50 is 12.7 µM (inactive).

Question: And the GI50 (NCI-H460)?
Answer: Its GI50 is 19.7 µM (inactive).

Question: What about the GI50 (NCI-H522) of the same molecule?
Answer: The GI50 was 3.3 µM (inactive).

Question: What about the GI50 (NCI/ADR-RES) of the same molecule?
Answer: Its GI50 is 3.97 µM (inactive).

Question: What about the GI50 (OVCAR-5) of the same molecule?
Answer: The GI50 was 51.8 µM (inactive).

Question: What about the GI50 (SF-539) of the same molecule?
Answer: Its GI50 is 15 µM (inactive).

Question: And the GI50 (SK-MEL-28)?
Answer: The GI50 was 51.4 µM (inactive).

Question: What about the GI50 (SN12C) of the same molecule?
Answer: The GI50 was 10.7 µM (inactive).

Question: What about the GI50 (T47D) of the same molecule?
Answer: The GI50 was 0.142 µM (active).

Question: And the GI50 (TK-10)?
Answer: The GI50 was 25.1 µM (inactive).

Question: What about the GI50 (UACC-62) of the same molecule?
Answer: Its GI50 is 10.5 µM (inactive).

Question: Which GI50 (ACHN) does the source give for CC(=O)CC1(O)C(=O)c2c(Br)sc(Br)c2C1=O here?
Answer: The GI50 was 34.3 µM (inactive).

Question: And the GI50 (CAKI-1)?
Answer: The GI50 was 17.3 µM (inactive).

Question: What about the GI50 (HCT-116) of the same molecule?
Answer: The GI50 was 19.8 µM (inactive).

Question: What about the GI50 (HL-60) of the same molecule?
Answer: The GI50 was 20.6 µM (inactive).

Question: What about the GI50 (HOP-92) of the same molecule?
Answer: The GI50 was 18.8 µM (inactive).

Question: And the GI50 (HT-29)?
Answer: The GI50 was 21.7 µM (inactive).

Question: What about the GI50 (KM12) of the same molecule?
Answer: Its GI50 is 34.3 µM (inactive).

Question: What about the GI50 (M14) of the same molecule?
Answer: The GI50 was 17.8 µM (inactive).

Question: And the GI50 (Malme-3M)?
Answer: Its GI50 is 18.1 µM (inactive).

Question: What about the GI50 (NCI-H226) of the same molecule?
Answer: Its GI50 is 65.6 µM (inactive).

Question: And the GI50 (NCI-H460)?
Answer: The GI50 was 45.1 µM (inactive).

Question: And the GI50 (NCI-H522)?
Answer: Its GI50 is 18.4 µM (inactive).

Question: What about the GI50 (NCI/ADR-RES) of the same molecule?
Answer: Its GI50 is 36.5 µM (inactive).

Question: What about the GI50 (OVCAR-5) of the same molecule?
Answer: The GI50 was 17.6 µM (inactive).

Question: What about the GI50 (SF-539) of the same molecule?
Answer: Its GI50 is 23.6 µM (inactive).

Question: And the GI50 (SK-MEL-28)?
Answer: Its GI50 is 20.7 µM (inactive).

Question: And the GI50 (SN12C)?
Answer: Its GI50 is 19.4 µM (inactive).

Question: And the GI50 (T47D)?
Answer: Its GI50 is 30.9 µM (inactive).

Question: And the GI50 (TK-10)?
Answer: Its GI50 is 25.9 µM (inactive).

Question: And the GI50 (UACC-62)?
Answer: Its GI50 is 21 µM (inactive).

Question: With C/C(=C\[C@H]1C[C@@H]([C@@H]2CC[C@]34C[C@]23C=C[C@@H]2[C@@]3(C)CC=C5C[C@@H](c6ccccc6)OC[C@]5(C)[C@@H]3C[C@@H](O)[C@]24C)C(=O)O1)CO [DICHAPETALIN A] as the molecule, how does the GI50 (ACHN) read?
Answer: The GI50 was 3.33 µM (inactive).

Question: What about the GI50 (CAKI-1) of the same molecule?
Answer: The GI50 was 2.08 µM (inactive).

Question: What about the GI50 (HCT-116) of the same molecule?
Answer: Its GI50 is 1.14 µM (inactive).

Question: What about the GI50 (HL-60) of the same molecule?
Answer: Its GI50 is 1.2 µM (inactive).

Question: And the GI50 (HOP-92)?
Answer: The GI50 was 1.95 µM (inactive).

Question: What about the GI50 (HT-29) of the same molecule?
Answer: Its GI50 is 2.01 µM (inactive).

Question: And the GI50 (KM12)?
Answer: Its GI50 is 2.45 µM (inactive).

Question: What about the GI50 (M14) of the same molecule?
Answer: The GI50 was 2.77 µM (inactive).

Question: What about the GI50 (Malme-3M) of the same molecule?
Answer: Its GI50 is 3.56 µM (inactive).

Question: What about the GI50 (NCI-H226) of the same molecule?
Answer: Its GI50 is 14.9 µM (inactive).

Question: And the GI50 (NCI-H460)?
Answer: The GI50 was 0.721 µM (active).

Question: What about the GI50 (NCI-H522) of the same molecule?
Answer: Its GI50 is 2.88 µM (inactive).

Question: And the GI50 (NCI/ADR-RES)?
Answer: Its GI50 is 3.08 µM (inactive).

Question: What about the GI50 (OVCAR-5) of the same molecule?
Answer: The GI50 was 9.82 µM (inactive).

Question: And the GI50 (SF-539)?
Answer: The GI50 was 5.08 µM (inactive).

Question: And the GI50 (SK-MEL-28)?
Answer: Its GI50 is 3.74 µM (inactive).

Question: And the GI50 (SN12C)?
Answer: The GI50 was 1.91 µM (inactive).

Question: What about the GI50 (T47D) of the same molecule?
Answer: The GI50 was 2.84 µM (inactive).

Question: And the GI50 (TK-10)?
Answer: The GI50 was 2.84 µM (inactive).

Question: What about the GI50 (UACC-62) of the same molecule?
Answer: Its GI50 is 9.02 µM (inactive).
